For orientation: melting point means the temperature of the solid-liquid transition.

Structures are written as SMILES.

With `COC(=O)c1cccc(-c2c(C)[nH]c(=S)n2Nc2cccc(C)c2)c1`, the melting point is 164 to 166 °C.

`Cc1c(C)c(NCc2ccccc2)c2c(c1C)C(=O)C(C)(C)O2` returned a melting point of 108 to 109 °C.

The compound `COc1cccc(C2CNC(=O)C2c2cn3c4c(cccc24)CCC3)c1` (stereo not drawn) showed a melting point of 191 to 194 °C.

Turning to `CN(C)c1ccc(-c2cnn(-c3cccc(C(=O)O)c3)c2)cc1`, the melting point was 224 to 225 °C.

For `CN(CCCCCC(=O)O)c1cnc(-c2ccccc2)c(-c2ccccc2)n1`, the melting point lay within 159 to 160 °C.

With `Cc1cc(C(=O)OC(C)(C)C)ccc1[N+](=O)[O-]`, the melting point lay in the range of 56 to 58 °C.

Turning to `COC(=O)Cc1csc2c(O)cccc12`, the melting point lay within 147 to 148 °C.

As for `CC#CCOc1ccc(S(=O)(=O)C(C(=O)NO)C2CCN(C(C)=O)CC2)cc1` (stereo not drawn), the melting point was 103 °C.

`CN(C)C=NS(=O)(=O)c1cc(C(C)(C)C)cc(C=O)c1O` registered a melting point of 182 to 183 °C.

`Cc1ccc(-c2cc(CO)c3[nH]c(=O)ccc3c2)c(C)n1`: the melting point fell in the range of 218 to 221 °C.

Compound `C[C@H](c1ccccc1)n1c(=O)c2c(N3CCNCC3)cc(Cl)cc2n(Cc2ccccc2)c1=O` came in with a melting point of 91 to 96 °C.

Compound `CC(=N)Nc1ccc(CCc2nc(NC(C)=O)sc2Cc2ccc(S(C)(=O)=O)cc2)cc1` displayed a melting point of 81.5 to 83 °C.

`CCNC1CN(c2c(F)cc3c(=O)c(C(=O)O)cn(C4CC4)c3c2F)C1` returned a melting point of 222 to 227 °C.

`Cc1cc(-n2nc(C(F)(F)F)cc2-c2ccc(-c3ccco3)cc2)ccc1S(N)(=O)=O` yielded a melting point of 137 °C.

Compound `CNC(=O)n1sc(OCc2ccc(Cl)cc2)nc1=O` yielded a melting point of 145 °C.

`CC(=S)NCC1CN(c2ccc(C(=O)Oc3c(F)c(F)c(F)c(F)c3F)c(F)c2)C(=O)O1` (stereo not drawn) came in with a melting point of 163 to 164 °C.

`O=C(O)c1ccc(-c2ccc3cc(OCc4ccccc4)c(C45CC6CC(CC(C6)C4)C5)cc3c2)s1`: the melting point lay within 170 to 171 °C.

`CC1N(C(=O)c2ccc(C(F)(F)F)cc2)CC(n2cncn2)OC1(Cn1cncn1)c1ccc(Cl)cc1Cl` (stereo not drawn) showed a melting point of 191 to 201 °C.

With `c1ccc2c(c1)Cc1c(-c3ccc(OCCN4CCOCC4)cc3)n[nH]c1-2`, the melting point lay in the range of 175 to 176 °C.

With `O=C1N(Cc2nsc(Cl)n2)c2ccccc2C12COc1cc3c(cc12)OCO3` (stereo not drawn), the melting point is 114 to 116 °C.

`CC(=O)NCC1CN(c2ccc(N3CCN(c4nc(=O)n(-c5ccccc5)s4)CC3)c(F)c2)C(=O)O1` (stereo not drawn) came in with a melting point of 245 to 247 °C.

As for `O=C(CCCOCCc1ccc2ccccc2c1)c1ccc(F)cc1`, the melting point was in the range of 68 to 70 °C.

The compound `COc1c(C)c(C)c2c(c1C)C(c1ccc(C=O)cc1)C(C)(C)O2` (stereo not drawn) displayed a melting point of 108 to 109 °C.

Compound `Cc1ccc(Oc2cncc3sc(C(N)=O)cc23)cc1` gave a melting point of 196 to 197 °C.

With `CCCCCP(=S)(CCCCC)NP(=S)(CCCCC)CCCCC`, the melting point lay in the range of 59 to 63.5 °C.

`CCCCCCCCCCNC(=O)CC#N` came in with a melting point of 78.5 to 80 °C.

With `ClCCCOc1ccc(-c2ccccc2)cc1`, the melting point is 65 to 66 °C.

For `CCC(=O)Nc1onc2c1c(=O)n(C)c(=O)n2C`, the melting point fell in the range of 150 to 152 °C.

The compound `COc1ccc2c(c1)c(C(=O)CCC(=O)O)c(C)n2Cc1ccc(Br)cc1` returned a melting point of 215 to 217 °C.

For the compound `CN1C(=O)CC[C@]2(C)c3ccc(SCc4ccccc4)cc3CC[C@@H]12`, the melting point fell in the range of 137 to 138 °C.

`CCOC(=O)C=CNC(=O)Nc1ccc(Cl)c(C(=O)OCC)c1` returned a melting point of 116 to 117 °C.

In the case of `CCOC(=O)c1cc(OCc2ccccc2)c2ccc(Br)cc2c1`, the melting point stood at 105 °C.

`CNS(=O)(=O)Cc1cc(Br)c(N)c(Br)c1` came in with a melting point of 155 to 157 °C.

Regarding `Cn1cc(C2=C(c3cn(CCCNC(N)=NC#N)c4ccccc34)C(=O)NC2=O)c2ccccc21`, the melting point was 168 to 170 °C.

`CCCC(=O)c1cnc2c(N)cccc2c1Nc1ccccc1C` displayed a melting point of 108 to 110 °C.

`CC(=O)SCC(CC(C)C)C(=O)NCC(=O)O` (stereo not drawn) showed a melting point of 120 to 121 °C.

In turn, `CC(=O)OCC1OC(Oc2ncn(Cc3ccc([N+](=O)[O-])cc3)c2C(N)=O)C(OC(C)=O)C1OC(C)=O` (stereo not drawn) gave a melting point of 156 °C.

For the compound `O=C1NCc2c(-c3ccccc3)cccc2N1C1CCCCC1`, the melting point fell in the range of 229 to 231 °C.

In turn, `CC(C)N(C)c1nc(Nc2cccc(NS(C)(=O)=O)c2)nc2[nH]cnc12` showed a melting point of 144 to 147 °C.

On to `O=C(O)c1ccc(NCCCc2ccc(Cl)cc2)cc1`, for which the melting point was 191 to 192 °C.

Compound `COC(=O)C(C)c1ccc(-c2ccccc2[N+](=O)[O-])cc1` (stereo not drawn) returned a melting point of 83 to 86 °C.

In turn, `CC(C)(C)OC(=O)NC1(CCN2C(=O)c3ccccc3C2=O)CC1` showed a melting point of 125 to 127 °C.

The compound `c1ccc(-c2nnc(NCC3CC3)cc2-c2ccncc2)cc1` gave a melting point of 199 to 200 °C.

`CCOC(=O)CC(=CNc1ncccc1C)C(=O)OCC` had a melting point of 62 °C.

The compound `CN1Cc2c(/C=C\Cl)ncn2-c2ccccc2C1=O` registered a melting point of 197 to 199 °C.

For `C[Si](CCSCCNC(=O)n1cc(F)c(=O)[nH]c1=O)(c1ccccc1)c1ccccc1`, the melting point lay in the range of 119 to 120 °C.

Compound `CCc1cccc(C)c1N(CN1CCOC1=O)C(=O)CCl` yielded a melting point of 101 to 102 °C.

As to `CC(=O)Oc1cc([N+](=O)[O-])cc2c1OC(C)(C)C2`, the melting point lay in the range of 142 to 143 °C.

In the case of `CC(C)(C)OC(=O)N1CCC(NC(=O)c2ccc(-n3ncc4ccccc43)cc2)CC1`, the melting point was 165 to 166 °C.

`COC(=O)CCN(C)CCNC(=O)c1nc(Cl)c(N)nc1N`: the melting point fell in the range of 136 to 137 °C.

For `O=C1Nc2ccccc2N(C(=O)CCCl)c2ccccc21`, the melting point was in the range of 241 to 242 °C.

As for `CC(=O)Oc1ccc(-c2cc3ccccc3[nH]2)cc1`, the melting point was determined as 203 °C.

Compound `O=[PH](O)Cc1ccc(P(c2ccccc2)c2ccccc2)cc1` came in with a melting point of 40 °C.

Regarding `CC(C)c1cc(S(=O)(=O)c2c(Br)cc(CCC(=O)O)cc2Br)ccc1O`, the melting point was 186 to 188 °C.

The compound `O=c1nc(-c2cccc(CSCc3ccccc3)n2)sc2ccccc12` displayed a melting point of 126 to 128 °C.

`CCOC(=O)C(C)(C#N)c1cccc(S(=O)(=O)c2ccccc2Cl)c1OC` (stereo not drawn) came in with a melting point of 178 to 179 °C.

In the case of `CC(C)(C)c1ccc(CN2CCNC2=O)cc1`, the melting point was in the range of 122 to 127 °C.

For `CCc1ccc(Oc2ccc(N3CCN(c4cccc(C)c4)CC3)nn2)cc1`, the melting point came out at 107 °C.

In turn, `O=C1CCC(N2C(=O)c3cccc(CNC(=O)c4ccc(Cl)c(Cl)c4)c3C2=O)C(=O)N1` (stereo not drawn) had a melting point of 161 to 163 °C.

In turn, `NC(=O)c1[nH]c2cccnc2c1Sc1cccc(F)c1` gave a melting point of 235 to 237 °C.

Regarding `CON1C=C2N=NC3=C(N2C1)N(C(C)C)CC=C3`, the melting point lay within 159 to 162 °C.

Compound `CCn1cc(C(=O)O)c(=O)c2cc(F)c(N3CCN(C)C(c4cc[nH]c4)C3)cc21` (stereo not drawn) had a melting point of 150 to 152 °C.

`COc1cc(Cl)cn2cc(-c3ccc(Cl)cc3)nc12` came in with a melting point of 150 to 151 °C.

Compound `Clc1nnnc(-c2cccc3ccccc23)c1Cl` showed a melting point of 165 to 170 °C.

Compound `C=CCSc1cc(C(=O)O)cc(S(N)(=O)=O)c1Oc1ccccc1` yielded a melting point of 218 to 219 °C.

`C=CC(C)(C)C1=C(O)C(=O)c2ccccc2C1=O` gave a melting point of 60 °C.

`O=C(c1ccccc1)c1cccnc1-c1nc(NC2CCCCC2)c2ccccc2n1` gave a melting point of 204 to 208 °C.

With `O=C(Nc1ccccn1)Nc1csc(-c2ccccn2)n1`, the melting point fell in the range of 233 to 235 °C.

On to `O=[N+]([O-])c1nccn1C(Br)CBr` (stereo not drawn), for which the melting point lay in the range of 102 to 106 °C.

In turn, `O=C1c2c(c(=O)n3nc(-c4ccccc4)cc3n2Cc2ccccc2)CCN1C1CCCCC1` showed a melting point of 247 to 248 °C.

In turn, `O=C(O)c1ccc(Cl)c(S(=O)(=O)c2ccccc2[N+](=O)[O-])c1` showed a melting point of 242 to 246 °C.

Compound `Cc1occc1Sc1cncc2sc(C(N)=O)cc12` gave a melting point of 236 to 239 °C.

Compound `COC(=O)C1Cc2c([nH]c3ccccc23)C(c2cccc(OC)c2)N1` (stereo not drawn) gave a melting point of 146 °C.

`COC(=O)COc1ccc2cc(-c3ccc(-c4ccccc4)n3Cc3ccccc3)ccc2c1` had a melting point of 101 to 102 °C.

`CC(C)(C)OC(=O)[C@@H]1CSC(Cc2ccccc2)N1C(=O)CNC(=O)Nc1cccc(CC(=O)O)c1` (stereo partly drawn) came in with a melting point of 110 °C.

For the compound `O=C(NCC1CC1)c1ccnc(N2CCN(Cc3ccc(F)cc3)C2=O)c1`, the melting point was in the range of 135 to 137 °C.

Compound `CC(=O)NCc1ccc(CN2CCN(c3ccc(F)cc3)CC2)cc1Cl` returned a melting point of 141 to 142 °C.

As to `CN(C)c1cc(C(O)CS(C)(=O)=O)cc(N(C)C)c1` (stereo not drawn), the melting point lay within 128 to 130 °C.

In turn, `CCCC(=O)c1cnc2c(C)cccc2c1Nc1cc(OC)ccc1OC` displayed a melting point of 115 to 116 °C.

Consider `O=C(O)C1Cc2c(ncn2Cc2ccccc2O)CN1C(=O)C(c1ccccc1)c1ccccc1` (stereo not drawn), for which the melting point lay within 187 to 190 °C.

Turning to `O=C(Nc1ccc(Cl)cc1)NC1N=C(c2ccccc2F)c2ccccc2NC1=O` (racemic), the melting point is 278 °C.

In turn, `COCCn1nc2c(N)nc3ccccc3c2c1CC(C)(C)O` registered a melting point of 171 to 172 °C.

`COc1ccc2c(c1)c(C(C)=NOC1CCCCO1)c(C)n2C(=O)c1ccc(Cl)cc1` (stereo not drawn): the melting point lay within 115 to 119 °C.

With `N#Cc1ccc(-n2c(N)nc3ccccc32)cc1-c1ccoc1`, the melting point lay in the range of 140 to 144 °C.

Compound `CC(C)(C)c1cc(C=C2SCN(C3CC3)C2=O)cc(C(C)(C)C)c1O` gave a melting point of 162 to 164 °C.

For `C#CC1(O)C=CC2C3CCC4=CC(=O)CCC4C3C(Cl)CC21CC` (stereo not drawn), the melting point is 202 °C.

`CCON1CCC2(CC1)NC(=O)C(c1c(C)cc(C)cc1C)=C2OC(=O)C(C)(C)C` came in with a melting point of 230 to 231 °C.

In the case of `O=S(=O)(Nc1ccc(OCc2ccc3ccccc3n2)cc1)c1c(F)c(F)c(F)c(F)c1F`, the melting point is 170 to 178 °C.

The values are drawn from a melting point compilation (Tetko et al.; mined from patent text by program, amines drawn as free bases though some values may be those of a salt).
